Measurements: patent US5393667A, “Eucaryotic NAD cyclases” (priority 1993, dated 1995)
Blank lines part the entries; values can stand above or below the molecule they belong to.

Key:
[1] = molecular target: T1, eucaryotic NAD cyclases of this invention (example: Aplysia californica NAD cyclase) (Aplysia californica, UniProt P29241); assay: Resistance of NAD cyclase to inhibitors of eucaryotic NADases; assay type: biochemical; settings: for inhibition of NAD cyclase by inhibitor: concentration not given
T1 sequence (P29241 25-282): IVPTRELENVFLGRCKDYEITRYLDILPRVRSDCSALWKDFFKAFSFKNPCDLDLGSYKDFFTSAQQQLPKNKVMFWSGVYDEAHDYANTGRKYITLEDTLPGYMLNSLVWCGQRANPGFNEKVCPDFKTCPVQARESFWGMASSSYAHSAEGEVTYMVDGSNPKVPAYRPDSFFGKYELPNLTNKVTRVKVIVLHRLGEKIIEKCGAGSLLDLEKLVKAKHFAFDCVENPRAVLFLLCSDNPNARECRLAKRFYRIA

[2] = molecular target: T2, Aplysia californica NAD cyclase (ovotestis NADase), purified, wild type (Aplysia californica, UniProt P29241); assay: NAD cyclase velocity vs. NAD concentration ([14C]-nicotinamide release); assay type: biochemical
T2 construct: from tissue; host or cells: ovotestis (Aplysia)
T2 sequence (P29241 25-282): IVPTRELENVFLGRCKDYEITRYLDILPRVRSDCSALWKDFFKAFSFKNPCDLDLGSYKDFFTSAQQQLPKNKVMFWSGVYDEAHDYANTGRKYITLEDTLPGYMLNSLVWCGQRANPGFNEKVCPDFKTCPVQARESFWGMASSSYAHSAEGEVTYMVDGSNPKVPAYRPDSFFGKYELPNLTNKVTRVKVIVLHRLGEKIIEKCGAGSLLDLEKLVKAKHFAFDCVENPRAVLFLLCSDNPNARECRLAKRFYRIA
Procedure: (§1) Referring to FIG. 4, various concentrations (0.05 to 5.0 mM) of [carbonyl-^14 C]NAD (specific activity=1.6 nCi/nmol) and 5×10^-9 M ovotestis NADase were incubated in 300 mM potassium phosphate buffer (pH 7.0) at 30° C. The amount of NAD cleaved during the incubation period was determined by measuring the amount of [^14 C]-nicotinamide produced. The data was fitted to the equation f=a+b*exp(-c*x) using a nonlinear curve fitting program (SigmaPlot, version 4.0). The estimated Km of the NAD Cyclase is 0.7 mM and the Vmax is approximately 32 nmoles/minute/35 ng enzyme. This corresponds to a turnover rate of about 27,000 moles NAD/minute/mole of NAD Cyclase at 30° C.

[3] = tested on: rat liver NAD glycohydrolase; settings: Moss et al., J. Biol. Chem. 257:5755-5759, 1982; cited from earlier work
[4] = substrate: NC(=O)c1ccc[n+]([C@@H]2O[C@H](COP(=O)([O-])OP(=O)(O)OC[C@H]3O[C@@H](n4cnc5c(N)ncnc54)[C@H](O)[C@@H]3O)[C@@H](O)[C@H]2O)c1; assay: NAD cyclase velocity vs. NAD concentration ([14C]-nicotinamide release); assay type: biochemical, Aplysia californica; settings: other: 0.05 to 5.0 mM [carbonyl-14C]NAD, 5x10^-9 M enzyme, 300 mM potassium phosphate pH 7.0, 30° C., estimated by nonlinear curve fit
Procedure: as §1

- inhibition of NAD cyclase by DTT ([1]; 1 mM DTT): resistant
Molecule: O[C@H](CS)[C@H](O)CS (racemic) [DTT, dithiothreitol]

- inhibition of NAD cyclase by inhibitor [1]: resistant
Molecule: CC(=O)c1ccc[n+]([C@@H]2O[C@H](COP(=O)([O-])OP(=O)(O)OC[C@H]3O[C@@H](n4cnc5c(N)ncnc54)[C@H](O)[C@@H]3O)[C@@H](O)[C@H]2O)c1 [3-acetylpyridine adenine dinucleotide]

Molecule: NC(=O)c1ccc[n+]([C@@H]2O[C@H](COP(=O)([O-])OP(=O)(O)OC[C@H]3O[C@@H](n4cnc5c(N)ncnc54)[C@H](O)[C@@H]3O)[C@@H](O)[C@H]2O)c1 [NAD, nicotinamide adenine dinucleotide]
- Vmax ([2]; 300 mM potassium phosphate pH 7.0, 30° C.): approximately 32 nmoles/minute/35 ng enzyme
- turnover rate ([2]; at 30° C., corresponds to Vmax): about 27,000 moles NAD/minute/mole of NAD Cyclase
- Km [3]: ~18 µM

- inhibition of NAD cyclase by inhibitor [1]: resistant
Molecule: NNC(=O)c1ccncc1 [isonicotinic acid hydrazide]

B1: Aplysia californica NAD cyclase (ovotestis NADase), purified, wild type (Aplysia californica) (protein)
chain: IVPTRELENVFLGRCKDYEITRYLDILPRVRSDCSALWKDFFKAFSFKNPCDLDLGSYKDFFTSAQQQLPKNKVMFWSGVYDEAHDYANTGRKYITLEDTLPGYMLNSLVWCGQRANPGFNEKVCPDFKTCPVQARESFWGMASSSYAHSAEGEVTYMVDGSNPKVPAYRPDSFFGKYELPNLTNKVTRVKVIVLHRLGEKIIEKCGAGSLLDLEKLVKAKHFAFDCVENPRAVLFLLCSDNPNARECRLAKRFYRIA
notes: 5×10^-9 M ovotestis NADase were incubated in 300 mM potassium phosphate buffer; from tissue; host or cells: ovotestis (Aplysia)
- Km [4]: 0.7 mM
